From patent publication US10265310B2, “6-membered cyclic amines or lactames substituted with urea and phenyl” (GRÜNENTHAL GMBH, priority 2016, dated 2019)

What was measured:
FPR1 = FPR1 (Homo sapiens (Human), UniProt P21462); assay: Agonistic activity (calcium FLIPR) in hFPR1-Gα15-CHO cells; assay type: cell-based; details: FLIPR Calcium 5 dye fluorescence, agonistic response
Description: (§1) Cells (hFPR1-Gα15-CHO or hFPR2-Aq-CHO) are suspended in 10 mL of respective complete medium (F12(1×) HAM media; 10% HI-FBS; 0.1 mg/ml Hygromycin B and 0.2 mg/ml Zeocin [for hFPR1 only]; 0.4 mg/mL Geneticin and 0.25 mg/ml Zeocin [for hFPR2-Aq only]) and viability is checked using Trypan Blue exclusion. After washing, the cells are plated at 10,000 cells per well in 40 μL complete medium in a 384-well sterile clear bottom black plate and incubated in a 5% CO2 incubator at 37° C. for 18 hours. Plating media is removed from each well by decanting and gentle tapping before 30 μL of 0.5× Calcium 5 dye solution (0.5×FLIPR Calcium 5 dye (Molecular devices, R8186)); HBSS; 20 mM HEPES; 2.5 mM Probenecid; 0.025% Pluronic F-127; pH adjusted to 7.4) is added to each well and the plate is then incubated at 37° C. for 30 minutes. For the assay the plate is equilibrated at room temperature for 10 minutes before placing it in the FLIPR. Compounds are dissolved in DMSO and serially diluted over an 11 point half log (3.16 fold) dilution (2 mM to 20 nM). Compounds are then diluted 1:50 in assay buffer (HBSS; 20 mM HEPES; 2.5 mM Probenecid; 0.05% gelatin; 0.1% BSA; pH adjusted to 7.4) just before performing the assay. Compounds are finally added to the respective wells of the cell plate (final assay concentration 10 μM to 100 pM) using the FLIPR (e.g. FLIPR-Tetra, Molecular Devices) and fluorescence readings are captured for 5 minutes. The increase in fluorescence from the basal reading in the presence of the compounds is compared with that of the control wells (wells having no compound) to calculate the activity of the compounds. The EC50 values of the compounds can be determined using e.g. Graph pad Prism software.
(§2) Assay Method for Measuring Agonistic Activity of Compounds in hFPR1-Gα15-CHO and hFPR2-Aq-CHO Cell
(§3) Cryo-vial containing 6×10^6 cells (hFPR1-Gα15-CHO or hFPR2-Aq-CHO) was thawed in a 37° C. water bath. Cells were suspended in 10 ml of respective complete growth media (F12(1×) HAM media (Gibco; Cat#11765); 10% HI-FBS (Gibco; Cat#10082); 0.1 mg/ml Hygromycin B (Invitrogen; Cat#10687-010) [for hFPR1 only]; 0.2 mg/ml Zeocin (Invitrogen; Cat#R25001) [for hFPR1 only]; 0.4 mg/ml Geneticin (Gibco; Cat#10131) [for hFPR2-Aq only]; 0.25 mg/ml Zeocin (Invitrogen; Cat#R25001) [for hFPR2-Aq only]) in a 15 ml centrifuge tube. The cell viability was checked with the help of Trypan Blue dye. Upon washing the cells, those were plated in a 384-well sterile clear bottom black plate (Greiner Bioone Cat#781091) so that, each well contained 10,000 cells in 40 μl complete growth media. The plate was incubated in a 5% CO2 incubator at 37° C. for 18 hours.
(§4) Before assay on the next day, the cell plating media was removed from each well of the plate by decanting and gentle tapping. 30 μl, 0.11 of 0.5× Calcium 5 dye solution (0.5×FLIPR Calcium 5 dye (Molecular devices Cat# R8186); HBSS (Invitrogen; Cat#14025); 20 mM HEPES (Sigma; Cat#H0887); 2.5 mM Probenecid (Sigma; Cat#P8761); 0.025% Pluronic F-127 (Sigma; Cat#P2443); pH adjusted to 7.4) was added to each well. The plate was then incubated at 37° C. for 30 minutes. Following which the plate was equilibrated at room temperature for 10 minutes before placing it in a 384 well FLIPR for assay. Compounds were dissolved in DMSO and serially diluted following 11 point half log (3.16 fold) dilution with a starting concentration of 2 mM (Final assay concentration 10 μM). Aliquots of above mentioned each dilution was mixed with assay buffer (HBSS (Invitrogen; Cat#14025); 20 mM HEPES (Sigma; Cat#H0887); 2.5 mM Probenecid (Sigma; Cat#P8761); 0.05% gelatin (Sigma; Cat#G1890); 0.1% BSA (Sigma; Cat#A3059); pH adjusted to 7.4) just before performing the assay. Compounds were added to the respective wells of the assay ready cell plate with the help of the FLIPR (FLIPR Tetra) and fluorescence readings were captured for 5 minutes to measure any agonistic response of the compounds. […]

FPR2 = FPR2 (Homo sapiens (Human), UniProt P25090); assay: Agonistic activity (calcium FLIPR) in hFPR2-Aq-CHO cells; assay type: cell-based; details: FLIPR Calcium 5 dye fluorescence, agonistic response
Description: as §1, §2, §3, §4

FPR1, sequence (P21462 whole entry): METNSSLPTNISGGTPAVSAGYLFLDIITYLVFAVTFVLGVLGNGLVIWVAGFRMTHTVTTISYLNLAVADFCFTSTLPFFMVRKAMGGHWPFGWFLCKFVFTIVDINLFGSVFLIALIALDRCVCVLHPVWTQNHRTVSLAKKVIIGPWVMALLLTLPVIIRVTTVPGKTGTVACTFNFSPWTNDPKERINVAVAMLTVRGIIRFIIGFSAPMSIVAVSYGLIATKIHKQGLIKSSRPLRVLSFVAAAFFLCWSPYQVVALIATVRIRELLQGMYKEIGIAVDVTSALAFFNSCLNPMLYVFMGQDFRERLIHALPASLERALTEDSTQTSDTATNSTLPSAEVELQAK
FPR2, sequence (P25090 whole entry): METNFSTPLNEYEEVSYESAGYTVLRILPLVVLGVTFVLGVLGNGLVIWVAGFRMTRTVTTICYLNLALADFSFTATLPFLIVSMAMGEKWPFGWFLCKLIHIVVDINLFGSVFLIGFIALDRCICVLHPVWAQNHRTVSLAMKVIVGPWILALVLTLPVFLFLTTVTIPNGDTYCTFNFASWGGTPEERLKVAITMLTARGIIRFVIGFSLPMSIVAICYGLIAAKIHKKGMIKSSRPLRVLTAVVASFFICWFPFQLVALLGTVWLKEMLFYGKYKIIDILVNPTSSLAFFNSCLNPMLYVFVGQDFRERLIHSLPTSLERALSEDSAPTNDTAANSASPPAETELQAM

SMILES	EC50 (FPR1) [nM]	EC50 (FPR2) [nM]
O=C(Nc1ccc(Cl)cc1)NC1CN(CC(F)F)C(=O)CC1c1ccc(F)cc1F (single isomer, unassigned; ent2) [Example 66, trans-ent2-1-(4-Chlorophenyl)-3-[1-(2,2-difluoro-ethyl)-4-(2,4-difluoro-phenyl)-6-oxo-piperidin-3-yl]-urea]	1 to 1000	1 to 1000
O=C1CC(c2ccc(F)cc2F)C(NC(=O)Nc2ccc(Cl)cc2)CN1 (single isomer, unassigned; ent2) [Example 68, trans-ent2-1-(4-Chlorophenyl)-3-[4-(2,4-difluoro-phenyl)-6-oxo-piperidin-3-yl]-urea]	1 to 1000	1 to 1000
COc1ccc([C@@H]2CC(=O)NC[C@H]2NC(=O)Nc2ccc(Br)cc2)cc1 (racemic) [Example 3, rac-trans-1-(4-bromophenyl)-3-(4-(4-methoxyphenyl)-6-oxopiperidin-3-yl)urea]	1 to 1000	< 1
COc1ccc([C@@H]2CCNC[C@H]2NC(=O)Nc2ccc(Br)cc2)cc1 (racemic) [Example 6, rac-trans-1-(4-bromophenyl)-3-(4-(4-methoxyphenyl)piperidin-3-yl)urea]	1 to 1000	< 1
CCc1cc(F)c([C@@H]2CC(=O)NC[C@H]2NC(=O)Nc2ccc(Cl)cc2)c(F)c1 (racemic) [Example 69, rac-trans-1-(4-chlorophenyl)-3-(4-(4-ethyl-2,6-difluorophenyl)-6-oxopiperidin-3-yl)urea]	1 to 1000	1 to 1000
COc1cc(F)c(C2CC(=O)NCC2NC(=O)Nc2ccncc2)c(F)c1 (single isomer, unassigned; ent1) [Example 47, ent1-1-(4-(2,6-difluoro-4-methoxyphenyl)-6-oxopiperidin-3-yl)-3-(pyridin-4-yl)urea]	1 to 1000	1 to 1000
COc1ccc(C2CC(=O)NCC2NC(=O)Nc2ccc(Cl)cc2)cc1 (single isomer, unassigned; ent1) [Example 76, trans-ent1-1-(4-chlorophenyl)-3-(4-(4-methoxyphenyl)-6-oxopiperidin-3-yl)urea]	1 to 1000	< 1
COc1ccc([C@@H]2CCN(C(C)=O)C[C@H]2NC(=O)Nc2ccc(Cl)nc2)cc1 (racemic) [Example 19, rac-trans-1-(1-acetyl-4-(4-methoxyphenyl)piperidin-3-yl)-3-(6-chloropyridin-3-yl)urea]	1 to 1000	1 to 1000
COc1cc(F)c([C@@H]2CC(=O)NC[C@H]2NC(=O)Nc2ccc(Cl)s2)c(F)c1 (racemic) [Example 51, rac-trans-1-(5-chlorothiophen-2-yl)-3-(4-(2,6-difluoro-4-methoxyphenyl)-6-oxopiperidin-3-yl)urea]	1 to 1000	1 to 1000
COc1ccc([C@@H]2CC(=O)NC[C@H]2NC(=O)Nc2ccc(Cl)cc2)cc1 (racemic) [Example 1, rac-trans-1-(4-chlorophenyl)-3-(4-(4-methoxyphenyl)-6-oxopiperidin-3-yl)urea]	1 to 1000	< 1
COc1ccc(C2CC(=O)N(CC(F)F)CC2NC(=O)Nc2ccc(Cl)cc2)c(F)c1 (single isomer, unassigned; ent2) [Example 62, trans-ent2-1-(4-Chlorophenyl)-3-[1-(2,2-difluoro-ethyl)-4-(2-fluoro-4-methoxy-phenyl)-6-oxo-piperidin-3-yl]-urea]	1 to 1000	1 to 1000

Second part, the compound after the results:

EC50 (FPR1) [nM]	EC50 (FPR2) [nM]	SMILES
1 to 1000	< 1	COc1cc(F)c(C2CCN(C(=O)C3CC3)CC2NC(=O)Nc2ccc(Cl)cc2)c(F)c1 (single isomer, unassigned; ent1) [Example 39, trans-ent1-1-(4-chlorophenyl)-3-(1-(cyclopropanecarbonyl)-4-(2,6-difluoro-4-methoxyphenyl)piperidin-3-yl)urea]
1 to 1000	1 to 1000	CS(=O)(=O)c1ccc([C@@H]2CC(=O)NC[C@H]2NC(=O)Nc2ccc(Cl)cc2)cc1 (racemic) [Example 75, rac-trans-1-(4-chlorophenyl)-3-(4-(4-(methylsulfonyl)phenyl)-6-oxopiperidin-3-yl)urea]
1 to 1000	1 to 1000	COc1cc(F)c(C2CC(=O)NCC2NC(=O)Nc2ccc(Cl)cc2)c(F)c1 (single isomer, unassigned; ent1) [Example 49, trans-ent1-1-(4-chlorophenyl)-3-(4-(2,6-difluoro-4-methoxyphenyl)-6-oxopiperidin-3-yl)urea]
< 1	< 1	COc1ccc([C@@H]2CCN(C(=O)CC(C)C)C[C@H]2NC(=O)Nc2ccc(Cl)cc2)cc1 (racemic) [Example 18, rac-trans-1-(4-chlorophenyl)-3-[4-(4-methoxyphenyl)-1-(3-methyl-butanoyl)-piperidin-3-yl]-urea]
1 to 1000	1 to 1000	O=C(Nc1ccc(Cl)cc1)NC1CNCCC1c1ccccc1 (single isomer, unassigned; ent1) [Example 80, trans-ent1-1-(4-chlorophenyl)-3-(4-phenylpiperidin-3-yl)urea]
1 to 1000	1 to 1000	COc1ccc([C@@H]2CCN(C(C)=O)C[C@H]2NC(=O)Nc2ccc(C(F)(F)F)nc2)cc1 (racemic) [Example 27, rac-trans-1-(1-acetyl-4-(4-methoxyphenyl)piperidin-3-yl)-3-(6-(trifluoromethyl)pyridin-3-yl)urea]
< 1	< 1	COc1ccc([C@@H]2CCN(C(=O)C3CCOCC3)C[C@H]2NC(=O)Nc2ccc(Cl)cc2)cc1 (racemic) [Example 16, rac-trans-1-(4-chlorophenyl)-3-(4-(4-methoxyphenyl)-1-(tetrahydro-2H-pyran-4-carbonyl)piperidin-3-yl)urea]
< 1	< 1	COc1ccc(C2CC(=O)N(CC(F)F)CC2NC(=O)Nc2ccc(Cl)cc2)c(F)c1 (single isomer, unassigned; ent1) [Example 61, trans-ent1-1-(4-Chlorophenyl)-3-[1-(2,2-difluoro-ethyl)-4-(2-fluoro-4-methoxy-phenyl)-6-oxo-piperidin-3-yl]-urea]
< 1	< 1	COC(=O)CN1C[C@@H](NC(=O)Nc2ccc(Cl)cc2)[C@H](c2ccc(OC)cc2)CC1=O (racemic) [Example 21, rac-trans-methyl 2-(5-(3-(4-chlorophenyl)ureido)-4-(4-methoxyphenyl)-2-oxopiperidin-1-yl)acetate]
< 1	< 1	COc1ccc([C@@H]2CCN(C(C)=O)C[C@H]2NC(=O)Nc2ccc(Cl)cc2)cc1 (racemic) [Example 2, rac-trans-1-(1-acetyl-4-(4-methoxyphenyl)piperidin-3-yl)-3-(4-chlorophenyl)urea]
< 1	< 1	COc1ccc([C@@H]2CCN(C(=O)CO)C[C@H]2NC(=O)Nc2ccc(Cl)cc2)cc1 (racemic) [Example 13, rac-trans-1-(4-chlorophenyl)-3-(1-(2-hydroxyacetyl)-4-(4-methoxyphenyl)piperidin-3-yl)urea]
